{"source": "patent US20150132813A1", "about": "“BIOSYNTHETIC PATHWAYS, RECOMBINANT CELLS, AND METHODS” (REGENTS OF THE UNIVERSITY OF MINNESOTA, priority 2012, published 2015)", "test_system": "α-ketoglutaric semialdehyde dehydrogenase KDHba", "assay": "Enzymatic assay of KDHba (NADH absorbance at 340 nm)", "format": "biochemical, Burkholderia ambifaria", "key": {"[1]": {"conditions": "substrate of KDHba, pH 8.0, 0.5 mM NAD+"}}}
{"smiles": "CCCCC=O", "note": "[Valeraldehyde, valeraldehyde]", "values": [{"measurement": "Km", "setting": "[1]", "result": 31, "unit": "µM"}, {"measurement": "kcat", "setting": "[1]", "result": "8.69 ± 0.26", "unit": "s⁻¹"}, {"measurement": "specificity constant (kcat/KM) of KDHba, fold higher than toward isobutyraldehyde", "setting": "versus isobutyraldehyde", "result": 1260, "unit": "fold"}, {"measurement": "specificity constant (kcat/KM) of KDHba, fold higher than toward isovaleraldehyde", "setting": "versus isovaleraldehyde", "result": 308, "unit": "fold"}]}
